Laboratory results reported in patent US4876260A, “Oxathiolanes” (State of Israel, Israel Institute of Biological Research, priority 1988, dated 1989).

Assays:
mice = assay: Pharmacodynamic profile and general toxicity in mice; assay type: in vivo, CD-1 mice
Experimental: Male white mice of the CD-1 strain supplied by Charles River Ltd. (U.K.) were used throughout. An acclimatization period of at least three days was allowed between arrival and commencement of a particular experimental series. The animals were fed a complete commercial pelleted rodent diet without restriction during the acclimatization and study periods. Animals had free access to tap water. Body weights during testing were mostly within 20-28 g.
Test materials were prepared as aqueous solutions in physiological saline (0.9% NaCl), up to a maximum concentration of 10 mg./ml. All materials were freshly prepared on the morning prior to each dosing session. Dosages were expressed gravimetrically (mg./kg.), in terms of the materials as received.
Groups of mice (mostly n=5) received either i.v. or oral administration of the test materials at various dose levels. Dose volumes appropriate for respective dose levels selected, were determined for each animal according to body weights on the day of dosing. Any behavioral changes occurring during one to two hours after administration, as well as incidence of death up to 24 hours after dosing were recorded.

[1] = test system: AF64A-induced cognitive impairment (passive avoidance); assay: Step-through passive avoidance in AF64A- and saline-injected rats; assay type: in vivo; settings: for Retention Latency: 72 hour retention test
Text: Development of potential drugs for the treatment of Alzheimer's disease requires their evaluation in appropriate animal models for this disease. […] This hippocampal cholinergic deficiency is accompanied by statistically significant cognitive impairments (inter alia) in step-through passive avoidance (PA). The present PA experiment investigated the possibility of reversing such impairments by administration of (+)-III (AF122B).
[…] post-operation, the AF64A and saline-injected groups were randomly subdivided into two treatment sub-groups. Sub-group 1 was treated with 1 mg./kg. i.p. (+)-III (AF122B), while sub-group 2 was treated with […]. i.p. saline. The drug or saline were administered immediately after shock.

[2] = test system: isolated guinea-pig ileum; assay: Contraction of isolated guinea-pig ileum preparation
Text: (§1) From this Table, it appears that compounds (III) were not so effective in contracting the guinea pig ileum preparation.

[3] = biological target: T1, M1 muscarinic receptors (3H-PZ sites, frontal cortex) (Rattus norvegicus, UniProt P08482); assay: Displacement of 3H-PZ from rat frontal cortex homogenate; assay type: binding; settings: for Ki: (a') frontal cortex, read-out: Ki(3H-PZ); for a':c', Ki(3H-PZ):Ki(3H-CD): (g) frontal cortex ratio
T1 sequence (P08482 1-460): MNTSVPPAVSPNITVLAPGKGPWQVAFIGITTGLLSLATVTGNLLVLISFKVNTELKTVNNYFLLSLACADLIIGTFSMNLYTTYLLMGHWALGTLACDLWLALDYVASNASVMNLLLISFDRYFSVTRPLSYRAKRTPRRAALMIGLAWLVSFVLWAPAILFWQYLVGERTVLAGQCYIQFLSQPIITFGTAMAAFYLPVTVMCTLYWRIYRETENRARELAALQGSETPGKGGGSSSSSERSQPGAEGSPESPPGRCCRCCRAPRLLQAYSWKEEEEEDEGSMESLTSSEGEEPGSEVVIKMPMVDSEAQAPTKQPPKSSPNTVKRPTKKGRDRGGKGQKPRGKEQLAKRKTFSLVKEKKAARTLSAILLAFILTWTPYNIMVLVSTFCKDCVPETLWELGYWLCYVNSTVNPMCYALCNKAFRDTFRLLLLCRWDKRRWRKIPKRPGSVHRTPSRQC

[4] = biological target: muscarinic receptors (3H-QNB sites, frontal cortex); assay type: binding, rat; settings: (b') frontal cortex
[5] = biological target: T2, M1 muscarinic receptors (3H-PZ sites, forebrain) (Rattus norvegicus, UniProt P08482); assay: Displacement of 3H-Pirenzepine (3H-PZ, selective M1 antagonist) from rat forebrain homogenate; assay type: binding; settings: for M1 selectivity (in words): from Tables 2A, 2B, 2C
T2 sequence (P08482 1-460): T1 sequence (P08482 1-460)

[6] = test system: muscarinic receptors (3H-QNB sites, cerebellum, mainly M2); assay: biochemical; assay type: binding, rat; settings: for b':b": (k) Ki(3H-QNB) frontal cortex : Ki(3H-QNB) cerebellum
[7] = biological target: T3, muscarinic receptors (3H-QNB sites, cerebellum, mainly M2) (Rattus norvegicus, UniProt P10980); assay: biochemical; assay type: binding; settings: Ki(3H-QNB), (b") cerebellum
T3 sequence (P10980 1-466): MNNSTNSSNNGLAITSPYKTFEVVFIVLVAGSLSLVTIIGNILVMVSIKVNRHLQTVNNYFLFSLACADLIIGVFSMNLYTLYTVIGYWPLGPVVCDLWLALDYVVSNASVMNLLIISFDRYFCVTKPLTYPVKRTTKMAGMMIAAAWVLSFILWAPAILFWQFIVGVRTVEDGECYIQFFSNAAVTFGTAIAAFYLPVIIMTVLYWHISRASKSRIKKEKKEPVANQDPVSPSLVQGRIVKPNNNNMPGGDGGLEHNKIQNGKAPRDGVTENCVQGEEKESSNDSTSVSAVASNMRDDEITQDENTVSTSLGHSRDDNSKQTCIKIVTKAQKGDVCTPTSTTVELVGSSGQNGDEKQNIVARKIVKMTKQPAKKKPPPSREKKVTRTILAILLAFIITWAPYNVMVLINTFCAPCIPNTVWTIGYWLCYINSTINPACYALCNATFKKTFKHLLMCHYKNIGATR

[8] = biological target: muscarinic receptors (3H-CD sites, frontal cortex); assay: Displacement of 3H-CD from rat frontal cortex homogenate; assay type: binding; settings: (c') frontal cortex
[9] = biological target: muscarinic receptors (3H-QNB sites, M1 and M2, forebrain); assay type: binding, rat; settings: (b) forebrain
[10] = test system: ACh-induced contractions of guinea-pig ileum; assay: Blocking of ACh-induced contractions of isolated guinea-pig ileum; settings: listed as AF122B
Text: as §1

[11] = 10 mg/kg i.v., listed as (+)-III AF122B
[12] = 25 mg/kg i.v., listed as (+)-III AF122B
[13] = 50 mg/kg i.v., listed as (+)-III AF122B
[14] = 100 mg/kg i.v., immed = immediately
[15] = 200 mg/kg p.o., listed as (+)-III AF122B
[16] = AF64A-injected rats, 1 mg./kg. i.p.
[17] = saline-injected rats, 1 mg./kg. i.p.
[18] = 25 mg/kg i.v., listed as (±)-III AF122B
[19] = 100 mg/kg p.o., listed as (±)-III AF122B
[20] = 200 mg/kg p.o., listed as (±)-III AF122B

Structure (SMILES): CC1OCC2(CN3CCC2CC3)S1 (single isomer, unassigned) [compound 10, 2-methylspiro(1,3-oxathiolan-4,3')quinuclidine]
- Convulsive seizures, No. affected/total treated (mice; 10 mg/kg i.v.): 2/8
- Mortality, time after drug administration (mice; 10 mg/kg i.v.): 5 s
- Respiratory distress, No. affected/total treated (mice; 10 mg/kg i.v.): 1/8
- Tremors, No. affected/total treated (mice; 10 mg/kg i.v.): 2/8
- Analgesia (nonresponsiveness to tail pinch), No. affected/total treated (mice; [11]): 5/8
- Mortality, No. dead/total treated (mice; [11]): 1/8
- Convulsive seizures, No. affected/total treated (mice; [12]): 5/5
- Mortality, No. dead/total treated (mice; [12]): 4/5
- Mortality, time after drug administration (mice; [12]): 30 s
- Respiratory distress, No. affected/total treated (mice; [12]): 1/5
- Tremors, No. affected/total treated (mice; [12]): 4/5
- Mortality, No. dead/total treated (mice; [13]): 2/2
- Mortality, time after drug administration (mice; [13]): 5 s
- Mortality, time after drug administration (mice; [14]): immed
- Mortality, No. dead/total treated (mice; 100 mg/kg i.v., listed as (+)-III AF122B): 2/2
- Analgesia (nonresponsiveness to tail pinch), No. affected/total treated (mice; 100 mg/kg p.o.): 5/5
- Respiratory distress, No. affected/total treated (mice; 100 mg/kg p.o.): 1/5
- Vocalization, No. affected/total treated (mice; 100 mg/kg p.o.): 1/4
- Mortality, No. dead/total treated (mice; 100 mg/kg p.o., listed as (+)-III AF122B): 0/5
- Tremors, No. affected/total treated (mice; 200 mg/kg p.o.): 3/5
- Altered motor activity (mice; [15]): a+h
- Analgesia (nonresponsiveness to tail pinch), No. affected/total treated (mice; [15]): 5/5
- Convulsive seizures, No. affected/total treated (mice; [15]): 5/5
- Mortality, No. dead/total treated (mice; [15]): 0/5
- Respiratory distress, No. affected/total treated (mice; [15]): 4/5
- Vocalization, No. affected/total treated (mice; [15]): 2/5
- Passive avoidance retention (in words) [1, 16]: improved the passive avoidance retention of AF64A-injected rats
- Retention Latency [1, 16]: 549.5 ± 29.1 s
- Effect on retention latency (in words) ([1]; AF64A-injected rats, 1 mg./kg. i.p., p<0.01): prolonged the retention latency of AF64A-injected rats
- Initial latency (training) (in words) ([1]; between any of the groups): No significant differences were found during training
- Effect on retention latency (in words) [1, 17]: no significant effect on the retention latency of saline-injected rats
- Retention Latency [1, 17]: 552 ± 33.7 s
- Contraction of guinea pig ileum (in words) ([2]; listed as (+)-AF122B): active enantiomer
- Ki [3]: 7.4 µM

Structure (SMILES): C[C@H]1O[C@@]2(CN3CCC2CC3)CS1(=O)=O (relative stereo) [compound 14, cis-2-methylspiro(1,3-oxathiolan-5,3')quinuclidine-3,3-dioxide]
- Ki [4]: 34.1 ± 3 µM
- Analgesia (nonresponsiveness to tail pinch), No. affected/total treated (mice; 50 mg/kg i.v.): 3/5
- Mortality, No. dead/total treated (mice; 50 mg/kg i.v.): 0/5
- Analgesia (nonresponsiveness to tail pinch), No. affected/total treated (mice; 100 mg/kg i.v.): 5/5
- Mortality, No. dead/total treated (mice; 100 mg/kg i.v.): 0/5
- Mortality, No. dead/total treated (mice; 100 mg/kg p.o.): 0/5
- Analgesia (nonresponsiveness to tail pinch), No. affected/total treated (mice; 200 mg/kg p.o.): 5/5
- Mortality, No. dead/total treated (mice; 200 mg/kg p.o.): 0/5
- potency (in words) ([5]; compared with (±)-cis-(II)): losing some of its potency
- M1 selectivity (in words) [5]: high M1 selectivity
- M1 selectivity (in words) ([5]; listed as (±)-cis-(II)-sulfone): still preserved an outstanding profile as judged by its M1 selectivity (ratio a':c')
- a':b" ([6]; (i) Ki(3H-PZ) frontal cortex : Ki(3H-QNB) cerebellum): 2.6
- b':b" [6]: 0.77
- Ki [7]: 44.1 ± 6.5 µM
- Ki [8]: 3.06 ± 2 µM
- a':b', Ki(3H-PZ):Ki(3H-QNB) [3]: 0.18
- Ki [3]: 5.5 ± 0.43 µM
- a':c', Ki(3H-PZ):Ki(3H-CD) [3]: 1.8

Structure (SMILES): CC1OCC2(CN3CCC2CC3)S1 (stereo not shown) [compound 7, 2-methylspiro(1,3-oxathiolan-4,3')quinuclidine]
- Ki [9]: 7 ± 0.5 µM
- a:b, Ki(3H-PZ):Ki(3H-QNB) [5]: 0.17
- Ki ([5]; (a) forebrain): 1.22 ± 0.4 µM
- M1 selectivity (in words) ([5]; listed as Compound (III)): M1 selectivity is preserved even in the mixture of the geometrical isomers

Structure (SMILES): CC1OCC2(CN3CCC2CC3)S1 (stereo not shown) [compound 8, 2-methylspiro(1,3-oxathiolan-4,3')quinuclidine]
- Ki [4]: 15.3 ± 2.2 µM
- Mortality, No. dead/total treated (mice; 10 mg/kg i.v., listed as (±)-III AF122B): 0/3
- Analgesia (nonresponsiveness to tail pinch), No. affected/total treated (mice; [18]): 2/5
- Convulsive seizures, No. affected/total treated (mice; [18]): 5/5
- Exophthalmus, No. affected/total treated (mice; [18]): 2/5
- Mortality, No. dead/total treated (mice; [18]): 3/5
- Respiratory distress, No. affected/total treated (mice; [18]): 2/5
- Tremors, No. affected/total treated (mice; [18]): 5/5
- Convulsive seizures, No. affected/total treated (mice; 50 mg/kg i.v.): 2/2
- Mortality, No. dead/total treated (mice; 50 mg/kg i.v.): 2/2
- Mortality, time after drug administration (mice; 50 mg/kg i.v.): 5 s
- Tremors, No. affected/total treated (mice; 50 mg/kg i.v.): 2/2
- Mortality, No. dead/total treated (mice; 50 mg/kg p.o.): 0/5
- Mortality, No. dead/total treated (mice; 100 mg/kg i.v.): 2/2
- Mortality, time after drug administration (mice; [14]): immed
- Analgesia (nonresponsiveness to tail pinch), No. affected/total treated (mice; 100 mg/kg p.o.): 4/4
- Convulsive seizures, No. affected/total treated (mice; 100 mg/kg p.o.): 4/4
- Vocalization, No. affected/total treated (mice; 100 mg/kg p.o.): 1/4
- Mortality, No. dead/total treated (mice; [19]): 1/4
- Tremors, No. affected/total treated (mice; [19]): 4/4
- Mortality, time after drug administration (mice; 100 mg/kg p.o., m = minutes): 15 m
- Analgesia (nonresponsiveness to tail pinch), No. affected/total treated (mice; 200 mg/kg p.o.): 4/4
- Respiratory distress, No. affected/total treated (mice; 200 mg/kg p.o.): 4/4
- Vocalization, No. affected/total treated (mice; 200 mg/kg p.o.): 2/4
- Convulsive seizures, No. affected/total treated (mice; [20]): 4/4
- Mortality, No. dead/total treated (mice; [20]): 4/4
- Tremors, No. affected/total treated (mice; [20]): 4/4
- Mortality, time after drug administration (mice; 200 mg/kg p.o., m = minutes): 15 m
- b':b" [6]: 0.73
- Ki [7]: 21.1 ± 7.6 µM
- Effect on ACh-induced contractions (in words) [10]: consistently blocked ACh-induced contractions
- Ki [8]: 2.3 µM
- Desensitization [2]: desensitization that was observed
- Blocking of the contractions by atropine (remarks) ([2]; listed as AF122B): the contractions were only partially blocked by atropine
- Contraction of guinea pig ileum (in words) ([2]; listed as AF122B): contracted the ileum muscle
- a':b', Ki(3H-PZ):Ki(3H-QNB) [3]: 0.11
- Ki [3]: 1.66 ± 0.24 µM
- a':c', Ki(3H-PZ):Ki(3H-CD) [3]: 0.7
